Experiments:
LDHA [1] = molecular target: T1, LDHA (Homo sapiens, UniProt P00338); assay: LDHA enzyme inhibition; assay type: biochemical; conditions: 6g vs 6f
LDHB = LDHB (Homo sapiens, UniProt P07195); assay: LDHB enzyme inhibition; assay type: biochemical
LDHA [2] = molecular target: T1, LDHA; assay: Binding to LDHA by SPR; conditions: for SPR τ: residence time on LDHA
Rat microsomal stability = assay type: in vitro ADME; conditions: microsomal data
PAMPA permeability = assay type: in vitro ADME
[3] = test system: A673 Ewing's Sarcoma line; assay: Inhibition of proliferation; assay type: cell-based; conditions: A673 cells

Chain of LDHB (P07195 whole entry): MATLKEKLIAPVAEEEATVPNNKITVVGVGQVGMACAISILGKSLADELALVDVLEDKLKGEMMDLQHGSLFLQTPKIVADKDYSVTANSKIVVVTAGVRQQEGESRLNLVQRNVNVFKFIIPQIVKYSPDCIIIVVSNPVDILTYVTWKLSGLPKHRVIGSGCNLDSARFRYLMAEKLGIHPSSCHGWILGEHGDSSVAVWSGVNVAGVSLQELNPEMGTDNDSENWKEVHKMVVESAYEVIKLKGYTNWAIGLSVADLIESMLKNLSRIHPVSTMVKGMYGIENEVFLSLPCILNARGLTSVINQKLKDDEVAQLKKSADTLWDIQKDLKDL

Row | fold less potent in LDHA inhibition compared with 6f (LDHA [1]) | IC50 (LDHB) | binding to LDHA by SPR (in words) (LDHA [2]) | residence time / dissociation kinetics by SPR (in words) (LDHA [2]) | SPR τ (LDHA [2]) | metabolic stability (in words) (Rat microsomal stability) | PAMPA Perm (PAMPA permeability) | proliferation IC50 values (in words) [3] | Structure (SMILES)
1 | – | 8 nM | – | faster dissociation kinetics | 286 s | – | 1.6 ×10⁻⁶ cm/s | – | NS(=O)(=O)c1ccc(Cc2c(-c3cccc(N4CCOCC4)c3)nn(-c3nc(C(=O)O)cs3)c2CC2CC2)cc1F [13a]
2 | – | 1 nM | – | faster dissociation kinetics | 59 s | – | 4.4 ×10⁻⁶ cm/s | – | NS(=O)(=O)c1ccc(Cc2c(-c3cccc(Nc4ccccc4)c3)nn(-c3nc(C(=O)O)cs3)c2CC2CC2)cc1 [13h]
3 | – | 2 nM | – | – | – | good stability | 6.4 ×10⁻⁶ cm/s | – | NS(=O)(=O)c1ccc(Cc2c(-c3ccc(F)c(NC(=O)c4ccccc4)c3)nn(-c3nc(C(=O)O)cs3)c2CC2CC2)cc1F [13i]
4 | – | 4 nM | – | – | – | good stability | 5.7 ×10⁻⁶ cm/s | – | NS(=O)(=O)c1ccc(Cc2c(-c3ccc(F)c(C(=O)N4CCCC4)c3)nn(-c3nc(C(=O)O)cs3)c2CC2CC2)cc1F [14b]
5 | – | 2 nM | – | – | – | – | 8.7 ×10⁻⁶ cm/s | – | NS(=O)(=O)c1ccc(Cc2c(-c3ccc(F)c(C(=O)NCc4ccccc4)c3)nn(-c3nc(C(=O)O)cs3)c2CC2CC2)cc1F [14d]

The next lines start with the compound.

Row | Structure (SMILES) | fold less potent in LDHA inhibition compared with 6f (LDHA [1]) | IC50 (LDHB) | binding to LDHA by SPR (in words) (LDHA [2]) | residence time / dissociation kinetics by SPR (in words) (LDHA [2]) | SPR τ (LDHA [2]) | metabolic stability (in words) (Rat microsomal stability) | PAMPA Perm (PAMPA permeability) | proliferation IC50 values (in words) [3]
6 | NS(=O)(=O)c1ccc(Cc2cn(-c3nc(C(=O)O)cs3)nc2-c2cccc(OCc3cccnc3)c2)cc1 [6g] | ~ 3 fold | – | – | – | – | – | – | –
7 | NS(=O)(=O)c1ccc(Cc2c(-c3ccc(F)c(OCC4CC4(F)F)c3)nn(-c3nc(C(=O)O)cs3)c2CC2CC2)cc1F (centres unmarked) [12b] | – | 3 nM | very tight binding | long residence times | 21,052 s | reasonable | 4.9 ×10⁻⁶ cm/s | –
8 | NS(=O)(=O)c1ccc(Cc2c(-c3ccc(F)c(OC4CC4)c3)nn(-c3nc(C(=O)O)cs3)c2CC2CC2)cc1F [12e] | – | 3 nM | very tight binding | long residence times | 19,230 s | reasonable | 5.8 ×10⁻⁶ cm/s | –
9 | NS(=O)(=O)c1ccc(Cc2c(-c3cccc(OCc4ccccc4)c3)nn(-c3nc(C(=O)O)cs3)c2CC2CC2)cc1F [12g] | – | 5 nM | – | – | 88,496 s | – | 1.1 ×10⁻⁶ cm/s | submicromolar
10 | NS(=O)(=O)c1ccc(Cc2c(-c3ccc(F)c(OCc4cccc(F)c4)c3)nn(-c3nc(C(=O)O)cs3)c2CC2CC2)cc1F [12h] | – | 5 nM | very tight binding | long residence times | 13,568 s | quite poor | 2.9 ×10⁻⁶ cm/s | submicromolar
11 | NS(=O)(=O)c1ccc(Cc2c(-c3ccc(F)c(OCc4ccc(C(F)(F)F)o4)c3)nn(-c3nc(C(=O)O)cs3)c2CC2CC2)cc1F [12j] | – | 6 nM | very tight binding | long residence times | 100,000 s | – | 12 ×10⁻⁶ cm/s | submicromolar
12 | Cc1ccc(Oc2cc(-c3nn(-c4nc(C(=O)O)cs4)c(CC4CC4)c3Cc3ccc(S(N)(=O)=O)c(F)c3)ccc2F)cc1 [12p] | – | 19 nM | very tight binding | long residence times | 9,708 s | quite poor | 13 ×10⁻⁶ cm/s | submicromolar

Source: publication PMC8113097 (Bioorganic & medicinal chemistry letters, 2021)
